Values of other authors, collected in US20220273628A1, “EFFECTS OF LYSERGIC ACID DIETHYLAMIDE (LSD) AND OF LSD ANALOGS TO ASSIST PSY[…] G[…] DISORDER OR OTHER ANXIETY NOT RELATED TO LIFE-T[…]” (Universitätsspital Basel, priority 2021, published 2022).

What was measured:
5-HT2A receptor = 5-HT2A receptor (Homo sapiens, UniProt P28223); conditions: cited from earlier work
[1] = tested on: patients with treatment-resistant depression; conditions: 12 patients, cited from earlier work

Sequence of 5-HT2A receptor (P28223 whole entry): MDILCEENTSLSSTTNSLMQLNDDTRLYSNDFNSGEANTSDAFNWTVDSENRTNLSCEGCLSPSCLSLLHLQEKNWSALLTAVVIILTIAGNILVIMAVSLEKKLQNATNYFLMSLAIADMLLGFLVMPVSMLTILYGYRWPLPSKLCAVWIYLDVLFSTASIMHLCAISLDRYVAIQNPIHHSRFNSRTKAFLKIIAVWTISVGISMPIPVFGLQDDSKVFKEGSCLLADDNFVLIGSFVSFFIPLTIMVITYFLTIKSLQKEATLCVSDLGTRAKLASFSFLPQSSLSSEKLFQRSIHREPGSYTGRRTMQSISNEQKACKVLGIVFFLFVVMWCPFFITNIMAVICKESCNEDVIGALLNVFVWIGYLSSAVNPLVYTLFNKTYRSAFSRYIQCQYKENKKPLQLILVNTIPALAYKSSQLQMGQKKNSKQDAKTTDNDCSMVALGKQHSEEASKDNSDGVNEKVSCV

SMILES	activity at the 5-HT2A receptor (5-HT2A receptor)	transient anxiety during drug onset ([1]; 10 mg and 25 mg)	mild and transient nausea [1]	transient confusion or thought disorder [1]	transient headache [1]
CN(C)CCc1c[nH]c2ccccc12 [DMT, N,N-dimethyltryptamine]	agonists				
COc1cc(CCN)cc(OC)c1OC [mescaline]	agonists				
CN(C)CCc1c[nH]c2cccc(OP(=O)(O)O)c12 [psilocybin]		all patients	four	nine	four
